Laboratory results reported in patent US7084137B2, “Thiazines and thiazoles as agents for protecting materials” (Bayer Aktiengesellschaft, priority 2001, dated 2006).
≈ marks a conversion by molar mass, not a printed value.

Columns and labels:
[1] = tested on: Bacillus subtilis; experiment: Minimum inhibitory concentration (MIC) against bacteria on nutrient agar; format: cell-based; details: 3 days of incubation at 28° C., 60 to 70% relative atmospheric humidity; for MIC: Bacillus subtilis, 72 h
Description: The active compounds according to the invention are in each case added, in concentrations of from 0.1 mg/ml to 5000 mg/ml, to a chemically defined nutrient agar. The MIC is determined after 3 days of incubation at 28° C. and 60 to 70% relative atmospheric humidity.

[2] = tested on: Chaetomium globosum; experiment: Minimum inhibitory concentration (MIC) against fungi on malt extract agar; format: cell-based; details: 2 weeks of incubation at 28° C., 60 to 70% relative atmospheric humidity; for MIC: Chaetomium globosum, 336 h
Description: (§1) The active compounds according to the invention are in each case added, in concentrations of from 0.1 mg/l to 5000 mg/l, to an agar which is prepared using malt extract. The MIC is determined after 2 weeks of incubation at 28° C. and 60 to 70% relative atmospheric humidity.

[3] = tested on: Aspergillus niger; experiment: as above; format: cell-based; details: 2 weeks of incubation at 28° C., 60 to 70% relative atmospheric humidity; for MIC: Aspergillus niger, 336 h
Description: as §1

[4] = tested on: Penicillium brevicaule; experiment: as above; format: cell-based; details: 2 weeks of incubation at 28° C., 60 to 70% relative atmospheric humidity; for MIC: Penicillium, 336 h
Description: as §1

[5] = tested on: mould fungi (Alternaria tenius, Aspergillus flavus, Aspergillus niger, Aspergillus ustus, Cindosporum herbarum, Paecilomyces variotii, Penicillium citrium …); experiment: Test of dispersion coatings for resistance to mould; details: coatings according to recipe A containing 1.5% (based on solids) of compound; even after leaching out and wind tunnel exposure; 2–3 weeks storage
Description: To test dispersion coatings for resistance to mould, the following procedure is adopted:
The paint to be tested is applied to both sides of a suitable base. To obtain results which are close to practice, some of the test specimens are leached out with running water (24 h, 20° C.) before the test for mould resistance; others are treated with a current of warm fresh air (7 days, 40° C.).
The samples prepared in this way are then placed on an agar nutrient medium, and both samples and nutrient medium are contaminated with fungal spores. After 2–3 weeks storage (29±1° C., 80–90% rel. atmospheric humidity), the samples are compared.
The coating is considered to be permanently mould-resistant if the sample remains free from fungus or at most a slightly border infestation can be detected.
For the contamination, fungal spores of the following mould fungi are used, which are known as paint destroyers or are frequently encountered on coatings: • Alternaria tenius • Aspergillus flavus • Aspergillus niger • Aspergillus ustus • Cindosporum herbarum • Paecilomyces variotii • Penicillium citrium • Aureobasidium pullulans • Stachybotrys chartarum
Recipe A: Exterior dispersion paint based on Acroal 290 D (styrene acrylate)

Structure (SMILES)	MIC [2] [µg/mL]	MIC [3] [µg/mL]	MIC [4] [µg/mL]	Minimum inhibitory concentration, Chaetomium globosum [2] [ppm]	Minimum inhibitory concentration, Penicillium brevicaule [4] [ppm]	other results
C=CCSC1=NCCS1 [CAS No. 3571-74-2, 2-[allylsulfanyl]-4,5-dihydro-1,3-thiazole]	–	–	–	–	–	MIC [1]: 200 µg/mL (≈ 1260 µM)
Clc1ccc(SC2=NCCCS2)cc1 [CAS No. 10554-28-6, 2-[(4-chlorophenyl)sulfanyl]-5,6-dihydro-4H-1,3-thiazine]	< 200	< 400	< 200	–	–	–
Clc1ccccc1SC1=NCCCS1 [CAS No. 55545-14-7, 2-[(2-chlorophenyl)sulfanyl]-5,6-dihydro-4H-1,3-thiazine]	< 200	< 200	< 200	–	–	–
Clc1ccc(SC2=NCCCS2)cc1Cl [CAS No. 73122-34-6, 2-[(3,4-dichlorophenyl)sulfanyl]-5,6-dihydro-4H-1,3-thiazine]	< 100	400 (≈ 1440 µM)	< 100	–	–	–
Clc1ccc(SC2=NCCCS2)c(Cl)c1 [CAS No. 73122-35-7, 2-[(2,4-dichlorophenyl)sulfanyl]-5,6-dihydro-4H-1,3-thiazine]	–	–	–	–	–	MIC [1]: < 40 µg/mL
Clc1cc(Cl)cc(SC2=NCCCS2)c1 [CAS No. 73122-37-9, 2-[(3,5-dichlorophenyl)sulfanyl]-5,6-dihydro-4H-1,3-thiazine]	–	–	–	–	–	MIC [1]: 100 µg/mL (≈ 359 µM)
Cc1ccccc1SC1=NCCCS1 [CAS No. 73122-46-0, 2-[(2-methylphenyl)sulfanyl]-5,6-dihydro-4H-1,3-thiazine]	< 200	200 (≈ 895 µM)	100 (≈ 448 µM)	–	–	–
CN(C)c1ccc(SC2=NCCCS2)cc1 [CAS No. 73122-51-7, 4-(5,6-dihydro-4H-1,3-thiazin-2-ylsulfanyl)-N,N-dimethylaniline]	< 100	200 (≈ 792 µM)	100 (≈ 396 µM)	–	–	–
COC(=O)C1CSC(SC(C)C)=N1 (stereo not drawn) [Example 8]	–	–	–	–	–	Minimum inhibitory concentration, Bacillus subtilis [1]: <200 ppm
COC(=O)C1CSC(Sc2cccc(Cl)c2)=N1 (stereo not drawn) [Example 18]	–	–	–	200	–	–
c1ccc(CSC2=NCCCS2)cc1 [Example 22]	–	–	–	–	–	Minimum inhibitory concentration, Bacillus subtilis [1]: 100 ppm
COc1cccc(SC2=NCCCS2)c1 [Example 25]	–	–	–	–	–	Mould resistance of coating [5]: mould-resistant
COc1ccccc1SC1=NCCCS1 [Example 26]	–	–	–	200	100	–
COc1ccccc1SC1=NCCCS1 [Example 36]	–	–	–	100	100	Minimum inhibitory concentration, Aspergillus niger [3]: 100 ppm
Cc1cccc(C)c1SC1=NCCCS1 [Example 37]	–	–	–	<200	400	–
Fc1cccc(SC2=NCCCS2)c1 [Example 39]	–	–	–	<100	<100	Minimum inhibitory concentration, Aspergillus niger [3]: 100 ppm
FC(F)(F)c1ccc(SC2=NCCCS2)cc1 [Example 40]	–	–	–	<100	<100	Minimum inhibitory concentration, Aspergillus niger [3]: <250 ppm
Oc1cccc(SC2=NCCCS2)c1 [Example 41]	–	–	–	200	100	–
COc1ccc(SC2=NCCCS2)cc1OC [Example 42]	–	–	–	100	<200	Minimum inhibitory concentration, Aspergillus niger [3]: 500 ppm
CCc1ccc(SC2=NCCCS2)cc1 [Example 44]	–	–	–	<100	<100	Minimum inhibitory concentration, Aspergillus niger [3]: 100 ppm
c1ccc(Oc2ccc(SC3=NCCCS3)cc2)cc1 [Example 45]	–	–	–	<100	100	–
c1ccc(-c2cccc(SC3=NCCCS3)c2)cc1 [Example 48]	–	–	–	<100	200	–
c1cc(C2CC2)ccc1SC1=NCCCS1 [Example 49]	–	–	–	<100	<100	Minimum inhibitory concentration, Aspergillus niger [3]: 100 ppm

Further lines, with some results ahead:

MIC [2] [µg/mL]	MIC [3] [µg/mL]	MIC [4] [µg/mL]	Structure (SMILES)	Minimum inhibitory concentration, Chaetomium globosum [2] [ppm]	Minimum inhibitory concentration, Penicillium brevicaule [4] [ppm]	other results
< 200	< 300	< 200	c1ccc(SC2=NCCCS2)cc1 [CAS No. 73122-32-4, 2-(phenylsulfanyl)-5,6-dihydro-4H-1,3-thiazine]	–	–	MIC [1]: < 100 µg/mL
< 200	200 (≈ 820 µM)	< 200	Clc1cccc(SC2=NCCCS2)c1 [CAS No. 73122-33-5, 2-[(3-chlorophenyl)sulfanyl]-5,6-dihydro4H-1,3-thiazine]	–	–	–
< 200	< 300	< 200	Brc1ccc(SC2=NCCCS2)cc1 [CAS No. 73122-41-5, 2-[(4-bromophenyl)sulfanyl]-5,6-dihydro-4H-1,3-thiazine]	–	–	–
< 100	100 (≈ 440 µM)	< 50	Fc1ccc(SC2=NCCCS2)cc1 [CAS No. 73122-42-6, 2-[(4-fluorophenyl)sulfanyl]-5,6-dihydro-4H-1,3-thiazine]	–	–	–
< 200	< 250	< 100	Cc1ccc(SC2=NCCCS2)cc1 [CAS No. 73122-44-8, 2-[(4-methylphenyl)sulfanyl]-5,6-dihydro4H-1,3-thiazine]	–	–	–
< 100	< 200	< 100	Cc1cccc(SC2=NCCCS2)c1 [CAS No. 73122-45-9, 2-[(3-methylphenyl)sulfanyl]-5,6-dihydro4H-1,3-thiazine]	–	–	–
< 100	100 (≈ 377 µM)	< 100	CC(C)(C)c1ccc(SC2=NCCCS2)cc1 [CAS No. 73122-48-2, 2-[(4-tert-butylphenyl)sulfanyl]-5,6-dihydro-4H-1,3-thiazine]	–	–	–
< 400	< 400	< 300	COc1ccc(SC2=NCCCS2)cc1 [CAS No. 73122-49-3, 2-[(4-methoxyphenyl)sulfanyl]-5,6-dihydro-4H-1,3-thiazine]	–	–	–
< 100	< 150	< 200	O=[N+]([O-])c1ccc(SC2=NCCCS2)cc1 [CAS No. 73122-52-8, 2-[(4-nitrophenyl)sulfanyl]-5,6-dihydro-4H-1,3-thiazine]	–	–	–
< 200	–	200 (≈ 870 µM)	Clc1ccc(SC2=NCCS2)cc1 [CAS No. 103482-92-4, 2-[4-chlorophenylsulfanyl]-4,5-dihydro-1,3-thiazole]	–	–	–
< 200	–	200 (≈ 870 µM)	Clc1cccc(SC2=NCCS2)c1 [CAS No. 103482-93-5, 2-[3-chlorophenylsulfanyl]-4,5-dihydro-1,3-thiazole]	–	–	–
< 200	–	< 200	O=[N+]([O-])c1ccc(SC2=NCCS2)cc1 [CAS No. 103482-99-1, 2-[4-nitrophenylsulfanyl]-4,5-dihydro-1,3-thiazole]	–	–	–
